Test results from PubChem BioAssay AID2060487 (Molecular Pharmacology Branch, DTP, NCI, 2025).

System: 997537-175-T-J1-PDC complex spheroid viability
Test: Anticancer human tumor 997537-175-T-J1-PDC patient-derived colon adenocarcinoma cell line growth inhibition [GQUAD]
Conditions: for IC50: curve of first compound; for viability, T/C: stronger effect = lower value
Summary of the method: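 Tumor cells were grown as complex spheroids with HUVEC endothelial cells and mesenchymal stem cells as stroma. G-quadruplex stabilizers were combined with targeted agents over half-log dilutions from near the clinical Cmax, or from 10 microM.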

[1] = second compound 0.0316 µM, first compound 0.0316 µM
[2] = second compound 0.0316 µM, first compound 0.1 µM
[3] = second compound 0.0316 µM, first compound 0.316 µM
[4] = second compound 0.0316 µM, first compound 1 µM
[5] = second compound 0.0316 µM, first compound 3.16 µM
[6] = second compound 0.0316 µM, first compound 10 µM
[7] = second compound 0.1 µM, first compound 0.0316 µM
[8] = second compound 0.1 µM, first compound 0.1 µM
[9] = second compound 0.1 µM, first compound 0.316 µM
[10] = second compound 0.1 µM, first compound 1 µM
[11] = second compound 0.1 µM, first compound 3.16 µM
[12] = second compound 0.1 µM, first compound 10 µM
[13] = second compound 0.316 µM, first compound 0.0316 µM
[14] = second compound 0.316 µM, first compound 0.1 µM
[15] = second compound 0.316 µM, first compound 0.316 µM
[16] = second compound 0.316 µM, first compound 1 µM
[17] = second compound 0.316 µM, first compound 3.16 µM
[18] = second compound 0.316 µM, first compound 10 µM
[19] = second compound 1 µM, first compound 0.0316 µM
[20] = second compound 1 µM, first compound 0.1 µM
[21] = second compound 1 µM, first compound 0.316 µM
[22] = second compound 1 µM, first compound 1 µM
[23] = second compound 1 µM, first compound 3.16 µM
[24] = second compound 1 µM, first compound 10 µM
[25] = second compound 3.16 µM, first compound 0.0316 µM
[26] = second compound 3.16 µM, first compound 0.1 µM
[27] = second compound 3.16 µM, first compound 0.316 µM
[28] = second compound 3.16 µM, first compound 1 µM
[29] = second compound 3.16 µM, first compound 3.16 µM
[30] = second compound 3.16 µM, first compound 10 µM
[31] = second compound 10 µM, first compound 0.0316 µM
[32] = second compound 10 µM, first compound 0.1 µM
[33] = second compound 10 µM, first compound 0.316 µM
[34] = second compound 10 µM, first compound 1 µM
[35] = second compound 10 µM, first compound 3.16 µM
[36] = second compound 10 µM, first compound 10 µM
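Further: spheroids exposed to the agents for 7 days.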
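Wherever viability, T/C is given: 100% = DMSO vehicle control viability.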

In the case of `Cc1cccc(N(C)C(=O)C2C(O)CCN2c2nc(C)cc(C(F)(F)F)c2C#N)c1` (stereo not drawn) + Cc1cnc(CNC(=O)c2c(=O)c3ccc(N4CCCN(C)CC4)nc3n3c2sc2ccccc23)cn1, the IC50 (second compound 0.0316 µM) is reported as over 10 µM, the IC50 (second compound 0.1 µM) is reported as over 10 µM and the IC50 (second compound 0.316 µM) is reported as over 10 µM. It also gave an IC50 (second compound 1 µM) of over 10 µM, an IC50 (second compound 3.16 µM) of over 10 µM and an IC50 (second compound 10 µM) of over 10 µM. The viability, T/C [1] was 82.4%, the viability, T/C [2] was 80.5% and the viability, T/C [3] was 89.2%. The viability, T/C [4] was 97.2%, the viability, T/C [5] was 82.3% and the viability, T/C [6] was 98.5%. It also gave a viability, T/C [7] of 102%, a viability, T/C [8] of 94.2% and a viability, T/C [9] of 94.2%. For the same molecule, the viability, T/C [10] was 67%, the viability, T/C [11] was 88.6% and the viability, T/C [12] was 92.4%. For the same molecule, the viability, T/C [13] was 93.7%, the viability, T/C [14] was 75.2% and the viability, T/C [15] was 99.5%. The viability, T/C [16] was 73.8%, the viability, T/C [17] was 112% and the viability, T/C [18] was 84.3%. The viability, T/C [19] was 94.6%, the viability, T/C [20] was 98.5% and the viability, T/C [21] was 87.8%. For the same molecule, the viability, T/C [22] was 88.4%, the viability, T/C [23] was 106% and the viability, T/C [24] was 99.7%. For the same molecule, the viability, T/C [25] was 77.3%, the viability, T/C [26] was 103% and the viability, T/C [27] was 96%. For the same molecule, the viability, T/C [28] was 93.4%, the viability, T/C [29] was 107% and the viability, T/C [30] was 87.7%. For the same molecule, the viability, T/C [31] was 85.1%, the viability, T/C [32] was 114% and the viability, T/C [33] was 98.3%. For the same molecule, the viability, T/C [34] was 95%, the viability, T/C [35] was 96.9% and the viability, T/C [36] was 86.7%.
In the case of `Cn1ncnc1[C@H]1c2n[nH]c(=O)c3cc(F)cc(c23)N[C@@H]1c1ccc(F)cc1` + Cc1cnc(CNC(=O)c2c(=O)c3ccc(N4CCCN(C)CC4)nc3n3c2sc2ccccc23)cn1, the IC50 (second compound 0.0316 µM) is reported as over 0.316 µM, the IC50 (second compound 0.1 µM) is reported as over 0.316 µM and the IC50 (second compound 0.316 µM) is reported as over 0.316 µM. The IC50 (second compound 1 µM) was over 0.316 µM, the IC50 (second compound 3.16 µM) was over 0.316 µM and the IC50 (second compound 10 µM) was over 0.316 µM. For the same molecule, the viability, T/C (second compound 0.0316 µM, first compound 0.000999 µM) was 96.5%, the viability, T/C (second compound 0.0316 µM, first compound 0.00316 µM) was 90.8% and the viability, T/C (second compound 0.0316 µM, first compound 0.00999 µM) was 90.8%. It also gave a viability, T/C [1] of 86.6%, a viability, T/C (second compound 0.0316 µM, first compound 0.0999 µM) of 76.9% and a viability, T/C [3] of 87.4%. The viability, T/C (second compound 0.1 µM, first compound 0.000999 µM) was 106%, the viability, T/C (second compound 0.1 µM, first compound 0.00316 µM) was 79.2% and the viability, T/C (second compound 0.1 µM, first compound 0.00999 µM) was 106%. For the same molecule, the viability, T/C [7] was 52.1%, the viability, T/C (second compound 0.1 µM, first compound 0.0999 µM) was 89.6% and the viability, T/C [9] was 85%. It also gave a viability, T/C (second compound 0.316 µM, first compound 0.000999 µM) of 107%, a viability, T/C (second compound 0.316 µM, first compound 0.00316 µM) of 93.8% and a viability, T/C (second compound 0.316 µM, first compound 0.00999 µM) of 86.4%. The viability, T/C [13] was 80.8%, the viability, T/C (second compound 0.316 µM, first compound 0.0999 µM) was 98.7% and the viability, T/C [15] was 85.5%. The viability, T/C (second compound 1 µM, first compound 0.000999 µM) was 89.4%, the viability, T/C (second compound 1 µM, first compound 0.00316 µM) was 89.9% and the viability, T/C (second compound 1 µM, first compound 0.00999 µM) was 94.4%. For the same molecule, the viability, T/C [19] was 116%, the viability, T/C (second compound 1 µM, first compound 0.0999 µM) was 95% and the viability, T/C [21] was 108%. The viability, T/C (second compound 3.16 µM, first compound 0.000999 µM) was 104%, the viability, T/C (second compound 3.16 µM, first compound 0.00316 µM) was 86.9% and the viability, T/C (second compound 3.16 µM, first compound 0.00999 µM) was 96.2%. The viability, T/C [25] was 100%, the viability, T/C (second compound 3.16 µM, first compound 0.0999 µM) was 94.4% and the viability, T/C [27] was 106%. It also gave a viability, T/C (second compound 10 µM, first compound 0.000999 µM) of 87.2%, a viability, T/C (second compound 10 µM, first compound 0.00316 µM) of 98.9% and a viability, T/C (second compound 10 µM, first compound 0.00999 µM) of 97.7%. For the same molecule, the viability, T/C [31] was 103%, the viability, T/C (second compound 10 µM, first compound 0.0999 µM) was 96.4% and the viability, T/C [33] was 98.3%.
`Nc1ccn(C2OC(CO)C(O)C2(F)F)c(=O)n1` (stereo not drawn) + Cc1cnc(CNC(=O)c2c(=O)c3ccc(N4CCCN(C)CC4)nc3n3c2sc2ccccc23)cn1 gave an IC50 (second compound 0.0316 µM) of over 10 µM, an IC50 (second compound 0.1 µM) of over 10 µM and an IC50 (second compound 0.316 µM) of over 10 µM. The IC50 (second compound 1 µM) was over 10 µM, the IC50 (second compound 3.16 µM) was over 10 µM and the IC50 (second compound 10 µM) was over 10 µM. It also gave a viability, T/C [1] of 90.3%, a viability, T/C [2] of 99.5% and a viability, T/C [3] of 87.3%. For the same molecule, the viability, T/C [4] was 66.6%, the viability, T/C [5] was 66.5% and the viability, T/C [6] was 56.4%. The viability, T/C [7] was 99.4%, the viability, T/C [8] was 84.5% and the viability, T/C [9] was 94.7%. The viability, T/C [10] was 56.4%, the viability, T/C [11] was 89.4% and the viability, T/C [12] was 83.8%. It also gave a viability, T/C [13] of 93.1%, a viability, T/C [14] of 108% and a viability, T/C [15] of 69.4%. It also gave a viability, T/C [16] of 76.6%, a viability, T/C [17] of 94.6% and a viability, T/C [18] of 92.9%. The viability, T/C [19] was 89.8%, the viability, T/C [20] was 103% and the viability, T/C [21] was 102%. The viability, T/C [22] was 68.3%, the viability, T/C [23] was 104% and the viability, T/C [24] was 77.6%. It also gave a viability, T/C [25] of 68.8%, a viability, T/C [26] of 96.6% and a viability, T/C [27] of 106%. It also gave a viability, T/C [28] of 101%, a viability, T/C [29] of 85.6% and a viability, T/C [30] of 89.3%. For the same molecule, the viability, T/C [31] was 103%, the viability, T/C [32] was 85.9% and the viability, T/C [33] was 113%. The viability, T/C [34] was 72.9%, the viability, T/C [35] was 91% and the viability, T/C [36] was 73.7%.
`O=c1[nH]cc(F)c(=O)[nH]1` + Cc1cnc(CNC(=O)c2c(=O)c3ccc(N4CCCN(C)CC4)nc3n3c2sc2ccccc23)cn1 gave an IC50 (second compound 0.0316 µM) of over 10 µM, an IC50 (second compound 0.1 µM) of over 10 µM and an IC50 (second compound 0.316 µM) of over 10 µM. The IC50 (second compound 1 µM) was over 10 µM, the IC50 (second compound 3.16 µM) was over 10 µM and the IC50 (second compound 10 µM) was over 10 µM. For the same molecule, the viability, T/C [1] was 96.2%, the viability, T/C [2] was 87.6% and the viability, T/C [3] was 85.1%. The viability, T/C [4] was 92.8%, the viability, T/C [5] was 89.6% and the viability, T/C [6] was 76.2%. For the same molecule, the viability, T/C [7] was 75.6%, the viability, T/C [8] was 82.8% and the viability, T/C [9] was 92.8%. For the same molecule, the viability, T/C [10] was 82.8%, the viability, T/C [11] was 102% and the viability, T/C [12] was 83%. It also gave a viability, T/C [13] of 75.9%, a viability, T/C [14] of 74.3% and a viability, T/C [15] of 84%. The viability, T/C [16] was 105%, the viability, T/C [17] was 110% and the viability, T/C [18] was 111%. The viability, T/C [19] was 88.1%, the viability, T/C [20] was 70.1% and the viability, T/C [21] was 84.9%. The viability, T/C [22] was 109%, the viability, T/C [23] was 67.2% and the viability, T/C [24] was 82.6%. The viability, T/C [25] was 78.4%, the viability, T/C [26] was 96.1% and the viability, T/C [27] was 87.8%. The viability, T/C [28] was 90.1%, the viability, T/C [29] was 82.7% and the viability, T/C [30] was 92.7%. The viability, T/C [31] was 73.7%, the viability, T/C [32] was 95.3% and the viability, T/C [33] was 98.3%. For the same molecule, the viability, T/C [34] was 75.2%, the viability, T/C [35] was 107% and the viability, T/C [36] was 90.6%.
